According to patent US8562949B2, “Radiolabeled dihydrotetrabenazine derivatives and their use as imaging agents” (The Trustees of the University of Pennsylvania, priority 2006, dated 2013):

Legend:
DAT sites = DAT sites (Mus musculus, UniProt Q61327); experiment: Dual isotope experiment in lesioned mice, [125I]IPT
Source text: Thirty minutes after injection, the mice were sacrificed and the brains removed. Different regions corresponding to striatum (ST), hippocampus (HP), cerebellum (CB), and cortex (CX) were dissected. In particular, the lesioned region was separated from non-lesioned area of the striatal tissues. Samples were counted in a gamma counter with two different window settings for F-18 and I-125, respectively, to obtain the regional distribution of each tracer.
To measure the degree of lesion, a dual-isotope experiment comparing the striatal uptakes in lesioned vs. unlesioned sites using [^18F]FP-DTBZ was performed. A marker [^125I]IPT (selective for dopamine transporters) was injected simultaneously.

VMAT2 = VMAT2 (Rattus norvegicus, UniProt Q01827); experiment: Competition for [3H](±)TBZ binding in rat striatal homogenates; set-up: The basal forebrain regions of rat and mouse brains were then dissected; from tissue; host or cells: rat striatum / basal forebrain homogenate; details: Kd […] used for calculation
VMAT2, sequence (Q01827 whole entry): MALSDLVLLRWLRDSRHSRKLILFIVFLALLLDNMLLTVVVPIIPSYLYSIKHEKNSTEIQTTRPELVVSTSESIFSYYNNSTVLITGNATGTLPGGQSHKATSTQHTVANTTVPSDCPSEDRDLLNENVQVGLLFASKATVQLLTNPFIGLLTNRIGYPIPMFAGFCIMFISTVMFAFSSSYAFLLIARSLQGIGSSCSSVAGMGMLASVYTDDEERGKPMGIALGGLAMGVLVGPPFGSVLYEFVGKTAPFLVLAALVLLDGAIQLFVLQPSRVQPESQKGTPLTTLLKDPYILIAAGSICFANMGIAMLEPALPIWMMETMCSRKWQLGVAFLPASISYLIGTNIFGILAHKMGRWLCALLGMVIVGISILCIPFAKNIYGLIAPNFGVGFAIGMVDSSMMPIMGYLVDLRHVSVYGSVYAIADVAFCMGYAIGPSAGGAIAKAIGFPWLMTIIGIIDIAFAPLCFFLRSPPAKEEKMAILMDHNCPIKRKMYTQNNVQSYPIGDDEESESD

[1] = lesioned Mouse 1, 30 min post-injection
[2] = lesioned Mouse 2, 30 min post-injection
[3] = lesioned Mouse 3, 30 min post-injection
[4] = lesioned Mouse 4, 30 min post-injection

DAT sites, sequence (Q61327 whole entry): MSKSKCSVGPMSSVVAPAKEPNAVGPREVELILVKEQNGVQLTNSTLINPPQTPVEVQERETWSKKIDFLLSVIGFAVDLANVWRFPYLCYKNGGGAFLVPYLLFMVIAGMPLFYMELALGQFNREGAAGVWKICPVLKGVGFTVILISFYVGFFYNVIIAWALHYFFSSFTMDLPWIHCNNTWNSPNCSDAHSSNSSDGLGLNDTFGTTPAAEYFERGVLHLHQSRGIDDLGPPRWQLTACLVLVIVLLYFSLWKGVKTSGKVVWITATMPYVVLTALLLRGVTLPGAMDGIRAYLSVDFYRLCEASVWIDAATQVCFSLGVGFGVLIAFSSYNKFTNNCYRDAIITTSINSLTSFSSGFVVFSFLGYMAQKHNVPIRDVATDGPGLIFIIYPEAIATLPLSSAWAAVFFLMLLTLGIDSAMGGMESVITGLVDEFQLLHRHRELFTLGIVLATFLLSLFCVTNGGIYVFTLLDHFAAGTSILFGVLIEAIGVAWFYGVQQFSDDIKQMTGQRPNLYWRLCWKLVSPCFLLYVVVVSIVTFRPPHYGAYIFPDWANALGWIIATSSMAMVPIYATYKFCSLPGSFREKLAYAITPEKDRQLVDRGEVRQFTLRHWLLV

## COC(=O)C1C(c2ccc(Cl)cc2)CC2CCC1N2CC=CI (stereo not drawn) [[^125I]IPT, N-(3′-iodopropen-2′-yl)-2-beta-carbomethoxy-3-beta-(4-chlorophenyl)tropane]
DAT sites; [1]
  % StrL/StrN: 32.6%
  Regional brain distribution Cerebellum (CB): 0.96 % dose/g
  Regional brain distribution Cortex: 0.69 % dose/g
  Regional brain distribution Hippocampus: 0.87 % dose/g
  Regional brain distribution Hypothalamus: 1.28 % dose/g
  Regional brain distribution Remainder: 1.34 % dose/g
  ratio vs. CB, Cerebellum (CB): 1.00
  ratio vs. CB, Cortex: 0.72
  ratio vs. CB, Hippocampus: 0.91
  ratio vs. CB, Hypothalamus: 1.34
  ratio vs. CB, Remainder: 1.40
  ratio vs. CB, Stratum N: 9.63
  ratio vs. CB, Striatum L: 3.14
DAT sites; [2]
  % StrL/StrN: 55.7%
  Regional brain distribution Cerebellum (CB): 0.77 % dose/g
  Regional brain distribution Cortex: 0.62 % dose/g
  Regional brain distribution Hippocampus: 0.70 % dose/g
  Regional brain distribution Hypothalamus: 1.22 % dose/g
  Regional brain distribution Remainder: 1.16 % dose/g
  ratio vs. CB, Cerebellum (CB): 1.00
  ratio vs. CB, Cortex: 0.80
  ratio vs. CB, Hippocampus: 0.90
  ratio vs. CB, Hypothalamus: 1.58
  ratio vs. CB, Remainder: 1.49
  ratio vs. CB, Stratum N: 8.17
  ratio vs. CB, Striatum L: 4.55
DAT sites; [3]
  % StrL/StrN: 52.3%
  Regional brain distribution Cerebellum (CB): 0.81 % dose/g
  Regional brain distribution Cortex: 0.66 % dose/g
  Regional brain distribution Hippocampus: 0.81 % dose/g
  Regional brain distribution Hypothalamus: 1.42 % dose/g
  Regional brain distribution Remainder: 1.57 % dose/g
  ratio vs. CB, Cerebellum (CB): 1.00
  ratio vs. CB, Cortex: 0.81
  ratio vs. CB, Hippocampus: 1.00
  ratio vs. CB, Hypothalamus: 1.76
  ratio vs. CB, Remainder: 1.95
  ratio vs. CB, Stratum N: 11.3
  ratio vs. CB, Striatum L: 5.90
DAT sites; [4]
  % StrL/StrN: 88.7%
  Regional brain distribution Cerebellum (CB): 0.76 % dose/g
  Regional brain distribution Cortex: 0.87 % dose/g
  Regional brain distribution Hippocampus: 0.62 % dose/g
  Regional brain distribution Hypothalamus: 0.99 % dose/g
  Regional brain distribution Remainder: 1.16 % dose/g
  ratio vs. CB, Cerebellum (CB): 1.00
  ratio vs. CB, Cortex: 1.15
  ratio vs. CB, Hippocampus: 0.81
  ratio vs. CB, Hypothalamus: 1.31
  ratio vs. CB, Remainder: 1.53
  ratio vs. CB, Stratum N: 10.2
  ratio vs. CB, Striatum L: 9.07

## COc1cc2c(cc1OCCCF)CCN1CC(CC(C)C)C(O)CC21 (racemic) [Compound 6b, (±)-2-hydroxy-3-isobutyl-9-(3-fluoropropoxy)-10-methoxy-1,2,3,4,6,7-hexahydro-11bH-benzo[a]quinolizine]
VMAT2; [3H](±)-TBZ
  Ki: 0.19 ± 0.04 nM

## COc1cc2c(cc1OCCCF)CCN1CC(CC(C)C)C(O)CC21 (single isomer, unassigned) [FP-(−)-DTBZ]
VMAT2; [3H](±)-TBZ
  Ki: > 3000 nM

## COc1cc2c(cc1O)CCN1CC(CC(C)C)C(O)CC21 (racemic) [3,9-desmethyl-(±)DTBZ, (±)-9-O-Desmethyldihydrotetrabenazine, reference compound]
VMAT2; [3H](±)TBZ 1.0-1.5 nM
  Ki: 11.8 ± 1.7 nM
